Reference: patent US9295732B2, “Conjugated TLR7 and/or TLR8 and TLR2 polycationic agonists” (CAYLA, priority 2013, dated 2016)

System: plasmid DNA (pDNA)
Assay: Gel shift (mobility shift) assay of pDNA complexation
Format: binding
Settings: pDNA:molecule ratio 3:24 (w:w), 0.8% agarose gel, compared to pDNA alone
Description: Then, 10 μl of pDNA:TLR7-TLR2 polyamine molecule complexes and 2 μl of charge buffer were mixed and loaded into wells of a 0.8% agarose gel. Samples were migrated through the gel in TAE buffer under 135 voltage for 21 mins and the migration of the pDNA was visualized following ethidium bromide staining under UV light. The ability of TLR7-TLR2 polyamine molecules to complex/associate with the pDNA was identified by partial or complete retardation of the pDNA migration toward the anode in the gel compared to pDNA alone. […] Ethidium bromide intercalation of pDNA in complex with molecules allowed visualization of complexed pDNA as a smear in the wells of the gel.

CCCCCCCCCCCCCCCC(=O)OCC(CSC[C@H](N)C(=O)Nc1ccc(Cn2c(O)nc3c(N)nc(NCCCC)nc32)cc1)OC(=O)CCCCCCCCCCCCCCC (stereo partly shown) [CL401, reference compound]
ability to complex pDNA (retardation of pDNA migration in agarose gel): lacks the ability to complex pDNA
